Test results reported in patent publication US20130287890A1, “INHIBITOR OF THE PRODUCTION OF ADVANCED GLYCATION END PRODUCTS” (UENO FINE CHEMICALS INDUSTRY, LTD., priority 2012, published 2013).

Experiments:
[1] = test system: 3-DG; test: Quantitative determination of 3-DG (HPLC) after reaction of amino acid or biological protein with carbohydrates at 37° C. for 42 days; type: biochemical; conditions: for 3-DG: 37° C., 42 days
Procedure: (§1) Amino acid or biological protein, carbohydrates and a phosphate buffer solution were charged in a 50 mL polypropylene centrifuge tube in each amount shown in Table 8, followed by sealing and stirring, and then the mixture was reacted in an incubator at 37° C. for 42 days. Next, the reactant was fractionated by centrifugation at 3,000 rpm for 3 hours using an ultrafiltration unit (VIVA SPIN 20, manufactured by Sartorius Corporation). The obtained low molecular weight fraction was used as a sample for determination of 3-DG, while the obtained high molecular weight fraction was used as a sample for the determination of fluorescent AGEs. Amino acid, biological protein and carbohydrates used are as follows:
In the same manner as in Test Example 1, except that the low molecular weight fraction prepared as mentioned above was used as a sample, quantitative determination of 3-DG was performed. In the same manner as in Test Example 2, except that the high molecular weight fraction prepared as mentioned above was used as a sample, determination of fluorescent AGEs was performed.
(§2) Amino acid, carbohydrates and a phosphate buffer solution were charged in a 50 mL polypropylene centrifuge tube in each amount shown in Table 10, followed by sealing and stirring, and then the mixture was reacted in an incubator at 37° C. for 42 days. Next, the reactant was filtered through a 0.2 μm filter and the obtained filtrate was used as a sample. Amino acid and carbohydrates used are as follows:
To 2 mL of a sample, the same amount of a 60% perchloric acid solution was added to deproteinize the sample. The sample was neutralized with 4 mL of an aqueous saturated sodium hydrogen carbonate solution and 0.8 mL of a 0.1% methanol solution of 2,3-diaminonaphthalene was added, and then the mixture was reacted at 4° C. for 16 hours. Next, the reactant was extracted with 4.4 mL of ethyl acetate, concentrated to dryness using an evaporator, dissolved in 5 mL of methanol, and then filtered through a 0.45 μm filter. The filtrate was subjected to high-performance liquid chromatography and 3-DG was quantitatively determined under the following measurement conditions.
Injection amount: 20 μL Column: TSK-GEL, ODS-80Ts (4.6×150 mm, manufactured by TOSOH CORPORATION) Column temperature: 30° C. Mobile phase: 50 mM phosphoric acid:methanol:acetonitrile=7:1.5:1.5 Flow rate: 1 mL/min.
as §1, with “Biological proteins,” for “Amino acid or biological protein,”, “are” for “were”, “12,” for “8,”, “AGEs, pentosidine, CML, RAGE agonist activity and RAGE antagonist activity. Biological proteins” for “AGEs. Amino acid, biological protein”
(§3) In the same manner as in Test Example 4, except that the low molecular weight fraction prepared as mentioned above was used as a sample, quantitative determination of 3-DG was performed. In the same manner as in Test Example 4, except that the high molecular weight fraction was filtered through a 0.2 μm filter and the filtrate was used as a sample, fluorescent AGEs, pentosidine, CML, RAGE agonist activity and RAGE antagonist activity were evaluated.
Collagen, carbohydrates and a phosphate buffer solution were charged in a 50 mL polypropylene centrifuge tube in each amount shown in Table 14, followed by sealing and stirring, and then the mixture was reacted in an incubator at 37° C. for 42 days. Next, the reactant was fractionated by centrifugation at 3,000 rpm for 3 hours using an ultrafiltration unit (VIVA SPIN 20, manufactured by Sartorius Corporation). […]

[2] = test system: CML; test: Quantitative determination of CML after reaction at 37° C. for 42 days; type: biochemical; conditions: for CML: 37° C., 42 days
Procedure: as §2
Using CircuLex CML/Nε-(carboxymethyl) lysine ELISA kit (manufactured by CycLex Co., Ltd.), quantitative determination of CML was performed in the following manner. Thirty (30) or more minutes before use, reagents and CML solid-phase wells were put to room temperature. By adding 1 mL of ultrapure water (Milli-Q water) to a CML-HSA standard powder, a master standard was prepared. By performing dilution with standard dilution buffers, standards 1 to 7 were prepared. The sample was diluted as necessary with sample dilution buffers. A CML-HSA standard and 60 μL of the sample were dispensed into a 96-well plate, which is not an accessory to the kit. Next, ultrapure water (Milli-Q water) was added to a first antibody powder, and by diluting with sample dilution buffers, a first antibody solution was prepared; 60 μL of the antibody solution was dispensed into the plate and mixed. After 100 μL of the mixture was added to CML solid-phase wells, the mixture was reacted at 25° C. for 1 hour while being shaken at 300 rpm. Then, the reaction solution was discarded, and 350 μL of rinsing fluid was dispensed to wash the plate. The washing was performed for 4 times. After liquid on the plate was removed, 100 μL of a second antibody solution was dispensed and reacted at 25° C. for 1 hour while being shaken at 300 rpm. The reaction solution was discarded, and the plate was washed for 4 times with 350 μL of rinsing fluid again. Liquid on the plate was removed, and 100 μL of a color coupler was dispensed. Then, the solution was left to stand for 10 minutes under a light shielding condition while being shaken at 300 rpm. Finally, 100 μL of a reaction stop solution was dispensed, and within 30 minutes after the dispensing, measurement was performed at main wavelength 450 nm/reference wavelength 595 nm using a micro-plate reader. The concentration of CML was determined using the calibration curve of a CML standard solution, based on measurement values of the sample.
as §1, with “Biological proteins,” for “Amino acid or biological protein,”, “are” for “were”, “12,” for “8,”, “AGEs, pentosidine, CML, RAGE agonist activity and RAGE antagonist activity. Biological proteins” for “AGEs. Amino acid, biological protein”
as §3
Collagen, carbohydrates and a phosphate buffer solution were charged in a 50 mL polypropylene centrifuge tube in each amount shown in Table 14, followed by sealing and stirring, and then the mixture was reacted in an incubator at 37° C. for 42 days. […]

[3] = Test Example 4, amino acid 0.4 g + carbohydrate 1.8 g
[4] = Test Example 5, bovine serum albumin 0.4 g + carbohydrate 1.8 g
[5] = Test Example 5, human serum albumin 0.4 g + carbohydrate 1.8 g
[6] = Test Example 5, γ-globulin 0.4 g + carbohydrate 1.8 g
[7] = Test Example 6, collagen 0.015 g + carbohydrate 1.8 g
[8] = Test Example 6, collagen 0.015 g + carbohydrate 1.8 g, hydrolysed high molecular weight fraction
[9] = Test Example 3, amino acid (lysine:arginine 1:1) 0.4 g + glucose 1.8 g or maltitol 3.4 g
[10] = Test Example 3, bovine serum albumin 0.4 g + glucose 1.8 g or maltitol 3.4 g
[11] = Test Example 4, amino acid, compared with sections containing glucose and fructose
[12] = Test Example 5, bovine serum albumin, human serum albumin, γ-globulin, compared with sections containing fructose
[13] = Test Example 5, bovine serum albumin, human serum albumin, γ-globulin, compared with sections containing glucose
[14] = Test Example 6, collagen, compared with sections containing glucose and fructose

Row | SMILES | 3-DG [1, 3] | 3-DG [1, 4] | 3-DG [1, 5] | 3-DG [1, 6] | 3-DG [1, 7] | CML [2, 3] | CML [2, 4] | CML [2, 5] | CML [2, 6] | CML [2, 8] | 3-DG [1, 9] | 3-DG [1, 10] | further results
1 | O=C(CO)[C@@H](O)[C@H](O)[C@H](O)CO [Fructose] | 904 nmol/1 mL of reaction solution | 5316 nmol/1 mL of reaction solution | 2358 nmol/1 mL of reaction solution | 877 nmol/1 mL of reaction solution | 1447 nmol/1 mL of reaction solution | 519 nmol/1 mL of reaction solution | 1046 nmol/1 mL of reaction solution | 4626 nmol/1 mL of reaction solution | 3813 nmol/1 mL of reaction solution | 452 nmol/1 mL of reaction solution |  |  | 
2 | O=C[C@H](O)[C@@H](O)[C@H](O)[C@H](O)CO [Glucose] | 8310 nmol/1 mL of reaction solution | 10253 nmol/1 mL of reaction solution | 2575 nmol/1 mL of reaction solution | 877 nmol/1 mL of reaction solution | 232 nmol/1 mL of reaction solution | 1197 nmol/1 mL of reaction solution | 309 nmol/1 mL of reaction solution | 1749 nmol/1 mL of reaction solution | 3628 nmol/1 mL of reaction solution | 475 nmol/1 mL of reaction solution | 22,761 nmol/1 g of protein | 29,938 nmol/1 g of protein | 
3 | OC[C@@H](O)[C@@H](O[C@H]1O[C@H](CO)[C@@H](O)[C@H](O)[C@H]1O)[C@H](O)[C@@H](O)CO [Maltitol] |  |  |  |  |  |  |  |  |  |  | 127 nmol/1 g of protein | 1,181 nmol/1 g of protein | production of 3-DG ([1]; Test Example 3, amino acids and bovine serum albumin, compared with sections containing glucose): significantly decreased
4 | OC[C@@H](O)[C@@H](O)[C@H](O)[C@@H](O)CO [Sorbitol] | 13 nmol/1 mL of reaction solution | 33 nmol/1 mL of reaction solution | 78 nmol/1 mL of reaction solution | 21 nmol/1 mL of reaction solution | 24 nmol/1 mL of reaction solution | 57 nmol/1 mL of reaction solution | 10 nmol/1 mL of reaction solution | 69 nmol/1 mL of reaction solution | 29 nmol/1 mL of reaction solution | 445 nmol/1 mL of reaction solution |  |  | production of 3-DG [1, 11]: significantly decreased; production of 3-DG [1, 12]: significantly decreased; production of 3-DG [1, 13]: decreased; production of 3-DG [1, 14]: significantly decreased; production of CML [2, 11]: decreased; production of CML [2, 12]: decreased; production of CML [2, 13]: decreased; production of CML [2, 14]: decreased
